{"source": "patent US20060216295A1", "about": "“Methods of identifying therapeutic targets for the treatment of vulvovaginal atrophy” (Wyeth, priority 2005, published 2006)", "molecules": {"B1": {"name": "Betacellulin: mouse betacellulin (Asp32-Gln118) generated in E. coli by R&D Systems (catalog # 1025-CE); member of the EGF family (protein)", "chain": "DGNTTRTPETNGSLCGAPGENCTGTTPRQKVKTHFSRCPKQYKHYCIHGRCRFVVDEQTPSCICEKGYFGARCERVDLFYLQQDRGQ", "modifications": "Mouse betacellulin peptide (asp32-gln118)", "notes": "mouse betacellulin (Asp32-Gln118) generated in E. coli by R&D Systems (catalog # 1025-CE); member of the EGF family"}, "B2": {"name": "NODDD: peptide corresponding to amino acids 343417 of HIF1α (N-terminal oxygen dependent degradation domain), FIG. 3 (peptide)", "chain": "SGIIQHDLIFSLQQTECVLKPVESSDMKMTQLFTKVESEDTSSLFDKLKKEPDALTLLAPAAGDTIISLDFGSND", "modifications": "NODDD sequence from Hif1a (amino acids 343-417)"}}, "key": {"vaginal epithelium [1]": {"tested_on": "vaginal epithelium", "assay_type": "in vivo, rat", "conditions": "for whether the compound mimics the action of 17β-estradiol in the vagina: ovariectomized rats treated intravaginally, Example 3", "procedure": "FIG. 4 represents H&E stained cross-sections of rat vagina after 5 days of intravaginal treatment with 100 nM betacellulin in 2% carbomer vehicle.\nThese histologic changes are the hallmark of a vaginal estrogenic response. Tables 2 and 3 detail the studies performed with mersalyl and betacellulin. The body of the table indicates the number of positive histological changes over the number of samples evaluated.\nTable 4 includes the studies performed with the PHD/FIH non-specific inhibitor DMOG, whereas Table 5 is the studies performed with 2,4-DPD.\nTable 6 includes the studies performed with the FIH specific inhibitor 3,4-dihydroxybenzoate (3,4-DHB), whereas Table 7 outlines the studies performed with N-oxalyl-D-alanine (NODA)."}, "vaginal epithelium [2]": {"tested_on": "vaginal epithelium", "assay_type": "in vivo, rat", "conditions": "intravaginal; 50 nM 17β-estradiol, 10 nM recombinant mouse betacellulin, 1 μM Mersalyl; 2% carbomer vehicle"}, "Betacellulin": {"tested_on": "Betacellulin", "test": "RNA expression analysis (Affymetrix RAE230A/B arrays) of vaginal vault of ovariectomized rats after 17β-estradiol", "assay_type": "in vivo, rat", "conditions": "Betacellulin mRNA, single dose 20 μg/kg 17β-estradiol subcutaneously", "from_the_text": "RNA was harvested from the entire vaginal vault at each time point and was subjected to RNA expression analysis. Five micrograms of total RNA were used to generate biotin labeled cRNA using an oligo T7 primer in a reverse transcription reaction followed by in vitro transcription reaction with biotin labeled UTP and CTP. Ten micrograms of cRNA were fragmented and hybridized to RAE230A and RAE230B arrays (Affymetrix, Santa Clara, Calif.). Hybridized arrays were stained according to manufacturer's protocols on a Fluidics Station 450 and scanned on an Affymetrix scanner 3000. All array images were visually inspected for defects and quality. Signal values were determined using Gene Chip Operating System 1.0 (GCOS, Affymetrix). For each array, all probe sets were normalized to a mean signal intensity value of 100. The default GCOS statistical values were used for all analyses. Signal values and absolute detection calls were imported into Genesis 2.0 (GeneLogic, Gaithersburg, Md.) for analysis.\nA gene was considered to be detectible if the mean expression in either the treated or untreated group was 50 signal units and the percentage of samples with a Present (P) call as determined by GCOS default settings was greater than or equal to 25%. A gene was considered to be regulated if the difference between the treated and untreated groups met the following criteria: (1) the gene had to be detected in at least 25% of the samples of at least one of the groups, (2) the fold change between was at least 1.7, and (3) the p-value based on a T-test had to be ≦0.01. Nine hundred fifty-nine qualifiers on the RAE230A array and 707 qualifiers on the RAE230B array met these conditions.\nBased on the time course of response and the biological function associated with them, HIF1α and betacellulin were selected as candidate targets for treatment of vulvovaginal atrophy. These proteins were selected for further study because they were regulated by estradiol after 6 hours of treatment and thus can be expected to be at the top of the estrogenic signaling cascade."}, "[3]": {"tested_on": "HIF-regulated transcripts", "conditions": "in vitro; cited from earlier work"}}, "note": "Like-named read-outs stand apart in the source and are kept apart here.", "data": [{"molecule": "CCOC(=O)c1ccnc(C(=O)OCC)c1", "note": "[2,4-DPD, 2,4-pyridinedicarboxylic acid, diethyl ester]", "values": [{"measurement": "number of positive histological responses/number of samples evaluated", "setting": "vaginal epithelium [1]; OVX rat, 2,4-DPD 0.1 μM intravaginal, Study 2", "value": "0/4"}, {"measurement": "number of positive histological responses/number of samples evaluated", "setting": "vaginal epithelium [1]; OVX rat, 2,4-DPD 1 μM intravaginal, Study 2", "value": "1/4"}, {"measurement": "number of positive histological responses/number of samples evaluated", "setting": "vaginal epithelium [1]; OVX rat, 2,4-DPD 10 μM intravaginal, Study 1", "value": "0/4"}, {"measurement": "number of positive histological responses/number of samples evaluated", "setting": "vaginal epithelium [1]; OVX rat, 2,4-DPD 10 μM intravaginal, Study 2", "value": "1/3"}, {"measurement": "number of positive histological responses/number of samples evaluated", "setting": "vaginal epithelium [1]; OVX rat, 2,4-DPD 10 μM intravaginal, Study 3", "value": "1/4"}, {"measurement": "whether the compound mimics the action of 17β-estradiol in the vagina", "setting": "vaginal epithelium [1]", "value": "variable results"}]}, {"molecule": "O=C(O)c1ccc(O)c(O)c1", "note": "[3,4-DHB, 3,4-dihydroxybenzoate]", "values": [{"measurement": "number of positive histological responses/number of samples evaluated", "setting": "vaginal epithelium [1]; OVX rat, 3,4-DHB 10 μM intravaginal, Study 1", "value": "1/4"}, {"measurement": "number of positive histological responses/number of samples evaluated", "setting": "vaginal epithelium [1]; OVX rat, 3,4-DHB 100 μM intravaginal, Study 1", "value": "0/4"}, {"measurement": "number of positive histological responses/number of samples evaluated", "setting": "vaginal epithelium [1]; OVX rat, 3,4-DHB 1 mM intravaginal, Study 1", "value": "0/4"}, {"measurement": "number of positive histological responses/number of samples evaluated", "setting": "vaginal epithelium [1]; OVX rat, 3,4-DHB 1 mM intravaginal, Study 2", "value": "0/4"}, {"measurement": "number of positive histological responses/number of samples evaluated", "setting": "vaginal epithelium [1]; OVX rat, 3,4-DHB 1 mM intravaginal, Study 3", "value": "0/3"}, {"measurement": "number of positive histological responses/number of samples evaluated", "setting": "vaginal epithelium [1]; OVX rat, 3,4-DHB 10 mM intravaginal, Study 1", "value": "4/4"}, {"measurement": "number of positive histological responses/number of samples evaluated", "setting": "vaginal epithelium [1]; OVX rat, 3,4-DHB 10 mM intravaginal, Study 2", "value": "1/4"}, {"measurement": "number of positive histological responses/number of samples evaluated", "setting": "vaginal epithelium [1]; OVX rat, 3,4-DHB 10 mM intravaginal, Study 3", "value": "2/3"}, {"measurement": "number of positive histological responses/number of samples evaluated", "setting": "vaginal epithelium [1]; OVX rat, 3,4-DHB 10 mM intravaginal, Study 4", "value": "1/3"}, {"measurement": "whether the compound mimics the action of 17β-estradiol in the vagina", "setting": "vaginal epithelium [1]", "value": "variable results"}]}, {"molecule": "C[C@]12CC[C@@H]3c4ccc(O)cc4CC[C@H]3[C@@H]1CC[C@@H]2O", "note": "[17β-estradiol]", "values": [{"measurement": "histology of rat vagina (H&E stained cross-sections) compared to vehicle, FIG. 1", "setting": "vaginal epithelium [2]", "value": "positive effect"}, {"measurement": "Fold Change Over Vehicle", "setting": "Betacellulin; 6 hour", "value": "+2.9"}, {"measurement": "Fold Change Over Vehicle", "setting": "Betacellulin; 72 hour", "value": "+2.8"}, {"measurement": "Fold Change Over Vehicle", "setting": "Betacellulin; 120 hour (5 day)", "value": "+1.6"}]}, {"molecule": "COC(=O)CNC(=O)C(=O)OC", "note": "[DMOG, N-(methoxyooxoacetyl)-glycine methyl ester]", "values": [{"measurement": "number of positive histological responses/number of samples evaluated", "setting": "vaginal epithelium [1]; OVX rat, DMOG 1 μM intravaginal, Study 2", "value": "0/4"}, {"measurement": "number of positive histological responses/number of samples evaluated", "setting": "vaginal epithelium [1]; OVX rat, DMOG 10 μM intravaginal, Study 1", "value": "3/3"}, {"measurement": "number of positive histological responses/number of samples evaluated", "setting": "vaginal epithelium [1]; OVX rat, DMOG 10 μM intravaginal, Study 2", "value": "2/3"}, {"measurement": "number of positive histological responses/number of samples evaluated", "setting": "vaginal epithelium [1]; OVX rat, DMOG 10 μM intravaginal, Study 3", "value": "2/4"}, {"measurement": "number of positive histological responses/number of samples evaluated", "setting": "vaginal epithelium [1]; OVX rat, DMOG 100 μM intravaginal, Study 1", "value": "0/3"}, {"measurement": "number of positive histological responses/number of samples evaluated", "setting": "vaginal epithelium [1]; OVX rat, DMOG 1 mM intravaginal, Study 1", "value": "0/3"}, {"measurement": "number of positive histological responses/number of samples evaluated", "setting": "vaginal epithelium [1]; OVX rat, DMOG 1 mM intravaginal, Study 3", "value": "1/4"}, {"measurement": "whether the compound mimics the action of 17β-estradiol in the vagina", "setting": "vaginal epithelium [1]", "value": "variable results"}]}, {"molecule": "C[C@@H](NC(=O)C(=O)O)C(=O)O", "note": "[NODA, N-oxalyl-D-alanine]", "values": [{"measurement": "number of positive histological responses/number of samples evaluated", "setting": "vaginal epithelium [1]; OVX rat, NODA 10 μM intravaginal, Study 1", "value": "1/4"}, {"measurement": "number of positive histological responses/number of samples evaluated", "setting": "vaginal epithelium [1]; OVX rat, NODA 10 μM intravaginal, Study 2", "value": "1/3"}, {"measurement": "number of positive histological responses/number of samples evaluated", "setting": "vaginal epithelium [1]; OVX rat, NODA 10 μM intravaginal, Study 3", "value": "0/3"}, {"measurement": "number of positive histological responses/number of samples evaluated", "setting": "vaginal epithelium [1]; OVX rat, NODA 100 μM intravaginal, Study 1", "value": "0/4"}, {"measurement": "number of positive histological responses/number of samples evaluated", "setting": "vaginal epithelium [1]; OVX rat, NODA 100 μM intravaginal, Study 2", "value": "0/3"}, {"measurement": "number of positive histological responses/number of samples evaluated", "setting": "vaginal epithelium [1]; OVX rat, NODA 100 μM intravaginal, Study 3", "value": "0/3"}, {"measurement": "number of positive histological responses/number of samples evaluated", "setting": "vaginal epithelium [1]; OVX rat, NODA 1 mM intravaginal, Study 1", "value": "0/4"}, {"measurement": "number of positive histological responses/number of samples evaluated", "setting": "vaginal epithelium [1]; OVX rat, NODA 1 mM intravaginal, Study 2", "value": "0/3"}, {"measurement": "number of positive histological responses/number of samples evaluated", "setting": "vaginal epithelium [1]; OVX rat, NODA 1 mM intravaginal, Study 3", "value": "1/3"}, {"measurement": "number of positive histological responses/number of samples evaluated", "setting": "vaginal epithelium [1]; OVX rat, NODA 1 mM intravaginal, Study 4", "value": "1/4"}, {"measurement": "number of positive histological responses/number of samples evaluated", "setting": "vaginal epithelium [1]; OVX rat, NODA 10 mM intravaginal, Study 1", "value": "3/4"}, {"measurement": "number of positive histological responses/number of samples evaluated", "setting": "vaginal epithelium [1]; OVX rat, NODA 10 mM intravaginal, Study 2", "value": "0/3"}, {"measurement": "number of positive histological responses/number of samples evaluated", "setting": "vaginal epithelium [1]; OVX rat, NODA 10 mM intravaginal, Study 3", "value": "1/3"}, {"measurement": "number of positive histological responses/number of samples evaluated", "setting": "vaginal epithelium [1]; OVX rat, NODA 10 mM intravaginal, Study 4", "value": "0/4"}, {"measurement": "whether the compound mimics the action of 17β-estradiol in the vagina", "setting": "vaginal epithelium [1]", "value": "variable results"}]}, {"molecule": "CODDD: peptide corresponding to amino acids 549-582 of HIF1α (C-terminal oxygen dependent degradation domain), FIG. 3", "values": [{"measurement": "upregulation of HIF-regulated transcripts", "setting": "[3]", "value": "capable of upregulating HIF-regulated transcripts in vitro"}]}, {"molecule": "B1", "values": [{"measurement": "number of positive histological changes over the number of samples evaluated", "setting": "vaginal epithelium [1]; Betacellulin dose 10 nM intravaginal, Study 1", "value": "3/3"}, {"measurement": "number of positive histological changes over the number of samples evaluated", "setting": "vaginal epithelium [1]; Betacellulin dose 10 nM intravaginal, Study 2", "value": "0/4"}, {"measurement": "number of positive histological changes over the number of samples evaluated", "setting": "vaginal epithelium [1]; Betacellulin dose 10 nM intravaginal, Study 3", "value": "3/3"}, {"measurement": "number of positive histological changes over the number of samples evaluated", "setting": "vaginal epithelium [1]; Betacellulin dose 100 nM intravaginal, Study 2", "value": "3/4"}, {"measurement": "number of positive histological changes over the number of samples evaluated", "setting": "vaginal epithelium [1]; Betacellulin dose 100 nM intravaginal, Study 3", "value": "2/3"}, {"measurement": "number of positive histological changes over the number of samples evaluated", "setting": "vaginal epithelium [1]; Betacellulin dose 1 μM intravaginal, Study 2", "value": "2/4"}, {"measurement": "effect on the rat vaginal epithelium, in words", "setting": "vaginal epithelium [1]; ovariectomized rats", "value": "mimics the effects of estrogen on the rat vaginal epithelium"}, {"measurement": "histological change of the vaginal epithelial layer compared to vehicle", "setting": "vaginal epithelium [1]; rats, intravaginal dosing, Example 2", "value": "clear thickening and differentiation of the vaginal epithelial layer"}, {"measurement": "histology of rat vagina (H&E stained cross-sections) compared to vehicle, FIG. 1", "setting": "vaginal epithelium [2]", "value": "positive effect"}]}, {"molecule": "B2", "values": [{"measurement": "upregulation of HIF-regulated transcripts", "setting": "[3]", "value": "capable of upregulating HIF-regulated transcripts in vitro"}]}]}
